One may read the Ki as a measure of affinity in units of concentration, obtained from inhibition or displacement. A low value points to tighter binding.

Consider 22 molecules from US9957261B2 (Hoffmann-La Roche Inc., priority 2014, dated 2018).

One assay concerns the target mouse TAAR1 (Mus musculus (Mouse), UniProt Q923Y8). As to the kind of experiment: Radioligand binding assay on mouse TAAR1. The settings on record: mouse TAAR1, membranes of stably transfected HEK-293 cells; first value of mouse/rat pair. As to the method:
(§1) Construction of TAAR Expression Plasmids and Stably Transfected Cell Lines
(§2) For the construction of expression plasmids the coding sequences of human, rat and mouse TAAR 1 were amplified from genomic DNA essentially as described by Lindemann et al.. The Expand High Fidelity PCR System (Roche Diagnostics) was used with 1.5 mM Mg^2+ and purified PCR products were cloned into pCR2.1-TOPO cloning vector (Invitrogen) following the instructions of the manufacturer. PCR products were subcloned into the pIRESneo2 vector (BD Clontech, Palo Alto, Calif.), and expression vectors were sequence verified before introduction in cell lines.
(§3) HEK293 cells (ATCC # CRL-1573) were cultured essentially as described by Lindemann et al. (2005). For the generation of stably transfected cell lines HEK293 cells were transfected with the pIRESneo2 expression plasmids containing the TAAR coding sequences (described above) with Lipofectamine 2000 (Invitrogen) according to the instructions of the manufacturer, and 24 hrs post transfection the culture medium was supplemented with 1 mg/ml G418 (Sigma, Buchs, Switzerland). After a culture period of about 10 d clones were isolated, expanded and tested for responsiveness to trace amines (all compounds purchased from Sigma) with the cAMP Biotrak Enzyme immunoassay (EIA) System (Amersham) following the non-acetylation EIA procedure provided by the manufacturer.
Radioligand Binding Assay on Mouse TAAR1
(§4) Membrane Preparation and Radioligand Binding.
(§5) HEK-293 cells stably expressing mouse TAAR1 were maintained at 37° C. and 5% CO2 in DMEM high glucose medium, containing fetal calf serum (10%, heat inactivated for 30 min at 56° C.), penicillin/streptomycin (1%), and 375 μg/ml geneticin (Gibco). Cells were released from culture flasks using trypsin/EDTA, harvested, washed twice with ice-cold PBS (without Ca^2+ and Mg^2+), pelleted at 1′000 rpm for 5 min at 4° C., frozen and stored at −80° C. Frozen pellets were suspended in 20 ml HEPES-NaOH (20 mM, pH 7.4) containing 10 mM EDTA and homogenized with a Polytron (PT 6000, Kinematica) at 14,000 rpm for 20 s. The homogenate was centrifuged at 48,000×g for 30 min at 4° C. Subsequently, the supernatant was removed and discarded, and the pellet resuspended in 20 ml HEPES-NaOH (20 mM, pH 7.4) containing 0.1 mM EDTA using the Polytron (20 s at 14,000 rpm). This procedure was repeated and the final pellet resuspended in HEPES-NaOH containing 0.1 mM EDTA and homogenized using the Polytron. Typically, aliquots of 2 ml membrane portions were stored at −80° C. With each new membrane batch the dissociation constant (Kd) was determined via a saturation curve. […] Nonspecific binding was defined as the amount of ^3[H]—(S)-4-[(ethyl-phenyl-amino)-methyl]-4,5-dihydro-oxazol-2-ylamine bound in the presence of 10 μM unlabeled ligand. All compounds were tested at a broad range of concentrations (10 pM to 10 μM) in duplicates. […] The 96 deep well plates were incubated for 1 hr at 4° C. Incubations were terminated by rapid filtration through Unifilter-96 plates (Packard Instrument Company) and glass filters GF/C (Perkin Elmer) presoaked for 1 hr in polyethylenimine (0.3%) and washed 3 times with 1 ml of cold binding buffer. After addition of 45 μl of Microscint 40 (PerkinElmer) the Unifilter-96 plate was sealed and after 1 hr the radioactivity counted using a TopCount Microplate Scintillation Counter (Packard Instrument Company).

The next assay has as its target rat TAAR1 (Rattus norvegicus (Rat), UniProt Q923Y9). As to the kind of experiment: Radioligand binding assay on rat TAAR1. Particulars: rat TAAR1, membranes of stably transfected HEK-293 cells; second value of mouse/rat pair. As to the method:
as §1, §2, §3
Radioligand Binding Assay on Rat TAAR1
as §4
as §5, with “rat” for “mouse”, “[H]—(S)-4-[(ethyl-phenyl-amino)-methyl]-4,5-dihydro-oxazol-2-ylamine” for “^3[H]—(S)-4-[(ethyl-phenyl-amino)-methyl]-4,5-dihydro-oxazol-2-ylamine”

Chain of rat TAAR1 (Q923Y9 whole entry): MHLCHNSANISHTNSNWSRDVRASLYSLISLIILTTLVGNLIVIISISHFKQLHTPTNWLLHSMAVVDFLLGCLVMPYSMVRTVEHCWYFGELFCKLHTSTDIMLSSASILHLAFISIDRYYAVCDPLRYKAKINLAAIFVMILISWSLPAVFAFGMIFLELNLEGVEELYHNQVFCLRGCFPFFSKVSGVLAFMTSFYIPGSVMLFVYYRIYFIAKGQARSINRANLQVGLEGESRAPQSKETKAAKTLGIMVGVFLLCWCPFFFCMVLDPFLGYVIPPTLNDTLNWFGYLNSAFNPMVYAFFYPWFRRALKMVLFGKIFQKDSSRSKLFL
Chain of mouse TAAR1 (Q923Y8 whole entry): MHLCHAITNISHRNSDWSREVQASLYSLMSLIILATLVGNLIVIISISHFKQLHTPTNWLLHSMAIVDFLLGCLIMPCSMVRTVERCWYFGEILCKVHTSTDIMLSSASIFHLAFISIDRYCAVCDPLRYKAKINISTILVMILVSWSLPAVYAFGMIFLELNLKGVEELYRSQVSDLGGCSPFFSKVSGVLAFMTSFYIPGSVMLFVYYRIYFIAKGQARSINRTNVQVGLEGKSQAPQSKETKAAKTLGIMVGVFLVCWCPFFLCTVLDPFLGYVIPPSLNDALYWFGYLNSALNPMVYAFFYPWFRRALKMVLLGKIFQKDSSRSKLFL

Regarding `N[C@H]1CCc2cc(NC(=O)c3ccc(C(F)(F)F)nc3)ccc2C1` [Example 20, (S)—N-(6-Amino-5,6,7,8-tetrahydronaphthalen-2-yl)-6-(trifluoromethyl)nicotinamide], the Ki at mouse TAAR1 was 0.0265 µM; at rat TAAR1 it was 0.0237 µM.
For `COc1ccc(C(=O)Nc2ccc3c(c2)CC[C@H](N)C3)cn1` [Example 21, (S)—N-(6-Amino-5,6,7,8-tetrahydronaphthalen-2-yl)-6-methoxynicotinamide] the same measures were 0.0344 µM and 0.0513 µM.
In the same order, the values of `N[C@H]1CCc2cc(NC(=O)c3ccc(OCC(F)(F)F)nc3)ccc2C1` [Example 22, (S)—N-(6-Amino-5,6,7,8-tetrahydronaphthalen-2-yl)-6-(2,2,2-trifluoroethoxy)nicotinamide] are 0.0033 µM and 0.0016 µM.
In the same order, the values of `N[C@H]1CCc2cc(Nc3ncc(C(F)(F)F)cn3)ccc2C1` [Example 23, (S)—N6-(5-(Trifluoromethyl)pyrimidin-2-yl)-1,2,3,4-tetrahydronaphthalene-2,6-diamine] are 0.0213 µM and 0.0068 µM.
As to `N[C@H]1CCc2cc(NC(=O)Nc3ccc(C(F)(F)F)cc3)ccc2C1` [Example 24, (S)-1-(6-Amino-5,6,7,8-tetrahydronaphthalen-2-yl)-3-(4-(trifluoromethyl)phenyl)urea], the Ki on mouse TAAR1 was found to be 0.0011 µM; at rat TAAR1, 0.0003 µM.
With `N[C@H]1CCc2cc(NC(=O)c3[nH]nc(-c4ccc(Cl)o4)c3Cl)ccc2C1` [Example 25, (S)—N-(6-Amino-5,6,7,8-tetrahydronaphthalen-2-yl)-4-chloro-3-(5-chlorofuran-2-yl)-1H-pyrazole-5-carboxamide], the Ki at mouse TAAR1 was 0.0007 µM; at rat TAAR1, 0.0003 µM.
For `Cc1onc(C(=O)Nc2ccc3c(c2)CC[C@H](N)C3)c1Cl` [Example 26, (S)—N-(6-Amino-5,6,7,8-tetrahydronaphthalen-2-yl)-4-chloro-5-methylisoxazole-3-carboxamide] the same measures were 0.0049 µM and 0.0199 µM.
As to `Cc1ccc(-n2cc(C(=O)Nc3ccc4c(c3)CC[C@H](N)C4)cn2)cc1` [Example 27, (S)—N-(6-Amino-5,6,7,8-tetrahydronaphthalen-2-yl)-1-p-tolyl-1H-pyrazole-4-carboxamide], the Ki on mouse TAAR1 came to 0.0028 µM; on rat TAAR1, 0.0037 µM.
For `N[C@H]1CCc2cc(NC(=O)c3cnn(-c4ccc(Cl)c(Cl)c4)c3)ccc2C1` [Example 28, (S)—N-(6-Amino-5,6,7,8-tetrahydronaphthalen-2-yl)-1-(3,4-dichlorophenyl)-1H-pyrazole-4-carboxamide] the same measures were 0.0007 µM and 0.0003 µM.
For `N[C@H]1CCc2cc(NC(=O)c3cnn(-c4ccc(OC(F)(F)F)cc4)c3)ccc2C1` [Example 29, (S)—N-(6-Amino-5,6,7,8-tetrahydronaphthalen-2-yl)-1-(4-(trifluoromethoxy)phenyl)-1H-pyrazole-4-carboxamide] the same measures were 0.0012 µM and 0.0005 µM.
With `CCOc1ccc(NC(=O)c2ccc3c(c2)CCC(N)C3)cn1` (centres unmarked) [Example 31, 6-Amino-N-(6-ethoxypyridin-3-yl)-5,6,7,8-tetrahydronaphthalene-2-carboxamide], the results for the Ki at mouse TAAR1 and at rat TAAR1 were 0.0247 µM and 0.0434 µM, respectively.
In the same order, the values of `NC1CCc2cc(C(=O)Nc3cnc(C4CC4)nc3)ccc2C1` (centres unmarked) [Example 32, 6-Amino-N-(2-cyclopropylpyrimidin-5-yl)-5,6,7,8-tetrahydronaphthalene-2-carboxamide] are 0.105 µM and 0.309 µM.
For `NC1CCc2cc(C(=O)Nc3cnc(C(F)(F)F)cn3)ccc2C1` (centres unmarked) [Example 33, 6-Amino-N-(5-(trifluoromethyl)pyrazin-2-yl)-5,6,7,8-tetrahydronaphthalene-2-carboxamide] the same measures were 0.021 µM and 0.0865 µM.
For `NC1CCc2cc(C(=O)Nc3ccc(C(F)(F)F)cc3)ccc2C1` (centres unmarked) [Example 34, 6-Amino-N-(4-(trifluoromethyl)phenyl)-5,6,7,8-tetrahydronaphthalene-2-carboxamide] the same measures were 0.0054 µM and 0.0039 µM.
Take `NC1CCc2cc(C(=O)NCc3ccc(C(F)(F)F)cc3)ccc2C1` (centres unmarked) [Example 35, 6-Amino-N-(4-(trifluoromethyl)benzyl)-5,6,7,8-tetrahydronaphthalene-2-carboxamide]: the Ki worked out at 0.0055 µM at mouse TAAR1 and 0.035 µM on rat TAAR1.
In the same order, the values of `N[C@H]1CCc2cc(Nc3ccc(C(F)(F)F)cn3)ccc2C1` [Example 38, (S)—N6-(5-(Trifluoromethyl)pyridin-2-yl)-1,2,3,4-tetrahydronaphthalene-2,6-diamine] are 0.0032 µM and 0.0021 µM.
For `N[C@H]1CCc2cc(NC(=O)c3cccnc3F)ccc2C1` [Example 39, (S)—N-(6-Amino-5,6,7,8-tetrahydronaphthalen-2-yl)-2-fluoronicotinamide] the same measures were 0.476 µM and 0.14 µM.
In the same order, the values of `N[C@H]1CCc2cc(NC(=O)c3cnc(Cl)c(Cl)c3)ccc2C1` [Example 41, (S)—N-(6-Amino-5,6,7,8-tetrahydronaphthalen-2-yl)-5,6-dichloronicotinamide] are 0.0031 µM and 0.0031 µM.
Take `N[C@H]1CCc2cc(NC(=O)c3ccc(F)c(F)c3)ccc2C1` [Example 42, (S)—N-(6-Amino-5,6,7,8-tetrahydronaphthalen-2-yl)-3,4-difluorobenzamide]: the Ki on mouse TAAR1 is 0.0035 µM; on rat TAAR1, 0.0019 µM.
Consider `N[C@H]1CCc2cc(NC(=O)c3ccc4ccccc4c3)ccc2C1` [Example 43, (S)—N-(6-Amino-5,6,7,8-tetrahydronaphthalen-2-yl)-2-naphthamide], for which the Ki on mouse TAAR1 worked out at 0.0006 µM; on rat TAAR1 it was 0.001 µM.
Consider `N[C@H]1CCc2cc(NC(=O)c3ccnc(C(F)(F)F)c3)ccc2C1` [Example 45, (S)—N-(6-Amino-5,6,7,8-tetrahydronaphthalen-2-yl)-2-(trifluoromethyl)isonicotinamide], for which the Ki worked out at 0.0117 µM at mouse TAAR1 and 0.0063 µM at rat TAAR1.
In the same order, the values of `N[C@H]1CCc2cc(NC(=O)c3cc(Cl)nc(Cl)c3)ccc2C1` [Example 46, (S)—N-(6-Amino-5,6,7,8-tetrahydronaphthalen-2-yl)-2,6-dichloroisonicotinamide] are 0.0042 µM and 0.0022 µM.
